Test results from ChEMBL document CHEMBL1201862, “PubChem BioAssay data set” (2004).
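How tested: cells in 96-well plates exposed to compound for 48 hours at five concentrations. The concentration for 50% growth inhibition is given as GI50.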 Calls of active or inactive are those of the source. Rule as the data show it: active = GI50 up to about 1.1 µM and inactive = higher. Non-standard residues stand in square brackets, D forms with d. Residues, ends and D or L forms follow the SMILES beside them. *: point of attachment. NMeF = CN[CH](Cc1ccccc1)C(=O)O; NMeV = CN[CH](C(=O)O)C(C)C; Boc = CC(C)(C)OC(=O)*

How the values were obtained:
Test in all cases: NCI tumour cell line growth inhibition, 48 h
786-0 = system: 786-0
ACHN = system: ACHN
CCRF-CEM = system: CCRF-CEM
HL-60 = system: HL-60
LOX IMVI = system: LOX IMVI
Malme-3M = system: Malme-3M
NCI-H226 = system: NCI-H226
OVCAR-5 = system: OVCAR-5
OVCAR-8 = system: OVCAR-8
RXF 393 = system: RXF 393
SF-268 = system: SF-268
SF-539 = system: SF-539
SK-MEL-2 = system: SK-MEL-2
SK-OV-3 = system: SK-OV-3
SR = system: SR
UACC-257 = system: UACC-257
UACC-62 = system: UACC-62
COLO 205 = system: COLO 205
OVCAR-4 = system: OVCAR-4

**Q.** Which results are given for CN1C(=O)CNS1(=O)=O?
**A.** GI50 (786-0): > 100 µM (inactive); GI50 (ACHN): > 100 µM (inactive); GI50 (CCRF-CEM): > 100 µM (inactive); GI50 (HL-60): > 100 µM (inactive); GI50 (LOX IMVI): > 100 µM (inactive); GI50 (Malme-3M): > 100 µM (inactive); GI50 (NCI-H226): > 100 µM (inactive); GI50 (OVCAR-5): > 100 µM (inactive); GI50 (OVCAR-8): > 100 µM (inactive); GI50 (RXF 393): > 100 µM (inactive); GI50 (SF-268): > 100 µM (inactive); GI50 (SF-539): > 100 µM (inactive); GI50 (SK-MEL-2): > 100 µM (inactive); GI50 (SK-OV-3): > 100 µM (inactive); GI50 (SR): > 100 µM (inactive); GI50 (UACC-257): > 100 µM (inactive); GI50 (UACC-62): > 100 µM (inactive)

**Q.** How did the GI50 (ACHN) turn out when CCCO/N=[N+](\[O-])N(CC)CC was run?
**A.** > 100 µM (inactive)

**Q.** What about the GI50 (CCRF-CEM) of the same molecule?
**A.** > 100 µM (inactive)

**Q.** What about the GI50 (HL-60) of the same molecule?
**A.** > 100 µM (inactive)

**Q.** What about the GI50 (LOX IMVI) of the same molecule?
**A.** > 100 µM (inactive)

**Q.** What about the GI50 (NCI-H226) of the same molecule?
**A.** > 100 µM (inactive)

**Q.** What about the GI50 (OVCAR-5) of the same molecule?
**A.** > 100 µM (inactive)

**Q.** What about the GI50 (OVCAR-8) of the same molecule?
**A.** > 100 µM (inactive)

**Q.** What about the GI50 (RXF 393) of the same molecule?
**A.** > 100 µM (inactive)

**Q.** What about the GI50 (SF-268) of the same molecule?
**A.** > 100 µM (inactive)

**Q.** And the GI50 (SF-539)?
**A.** > 100 µM (inactive)

**Q.** What about the GI50 (SK-MEL-2) of the same molecule?
**A.** > 100 µM (inactive)

**Q.** What about the GI50 (SK-OV-3) of the same molecule?
**A.** > 100 µM (inactive)

**Q.** What about the GI50 (SR) of the same molecule?
**A.** > 100 µM (inactive)

**Q.** And the GI50 (UACC-257)?
**A.** > 100 µM (inactive)

**Q.** What about the GI50 (UACC-62) of the same molecule?
**A.** > 100 µM (inactive)

**Q.** How did the GI50 (786-0) turn out when O=C(O)C(CS)NCc1c2ccccc2nc2ccccc12 (stereo not given) was run?
**A.** 55.2 µM (inactive)

**Q.** What about the GI50 (ACHN) of the same molecule?
**A.** 42.3 µM (inactive)

**Q.** And the GI50 (CCRF-CEM)?
**A.** 19 µM (inactive)

**Q.** What about the GI50 (COLO 205) of the same molecule?
**A.** > 100 µM (inactive)

**Q.** And the GI50 (HL-60)?
**A.** 22.3 µM (inactive)

**Q.** What about the GI50 (LOX IMVI) of the same molecule?
**A.** 30.5 µM (inactive)

**Q.** What about the GI50 (Malme-3M) of the same molecule?
**A.** 38.2 µM (inactive)

**Q.** And the GI50 (NCI-H226)?
**A.** > 100 µM (inactive)

**Q.** What about the GI50 (OVCAR-4) of the same molecule?
**A.** 12.9 µM (inactive)

**Q.** And the GI50 (OVCAR-5)?
**A.** > 100 µM (inactive)

**Q.** What about the GI50 (OVCAR-8) of the same molecule?
**A.** 32.6 µM (inactive)

**Q.** And the GI50 (RXF 393)?
**A.** 24.2 µM (inactive)

**Q.** What about the GI50 (SF-268) of the same molecule?
**A.** 40.7 µM (inactive)

**Q.** And the GI50 (SF-539)?
**A.** 33.9 µM (inactive)

**Q.** And the GI50 (SK-MEL-2)?
**A.** 68.2 µM (inactive)

**Q.** What about the GI50 (SK-OV-3) of the same molecule?
**A.** > 100 µM (inactive)

**Q.** What about the GI50 (SR) of the same molecule?
**A.** 19.5 µM (inactive)

**Q.** What about the GI50 (UACC-257) of the same molecule?
**A.** 57.8 µM (inactive)

**Q.** With O=C1c2ccccc2C(=O)c2[nH]c(Cc3ccccc3F)nc21 as the molecule, how does the GI50 (786-0) read?
**A.** 38.5 µM (inactive)

**Q.** What about the GI50 (ACHN) of the same molecule?
**A.** 53.5 µM (inactive)

**Q.** What about the GI50 (CCRF-CEM) of the same molecule?
**A.** > 100 µM (inactive)

**Q.** What about the GI50 (COLO 205) of the same molecule?
**A.** 33.7 µM (inactive)

**Q.** What about the GI50 (HL-60) of the same molecule?
**A.** 35.6 µM (inactive)

**Q.** What about the GI50 (Malme-3M) of the same molecule?
**A.** 40.7 µM (inactive)

**Q.** And the GI50 (NCI-H226)?
**A.** 48.2 µM (inactive)

**Q.** And the GI50 (OVCAR-4)?
**A.** 28.1 µM (inactive)

**Q.** What about the GI50 (OVCAR-8) of the same molecule?
**A.** 48.3 µM (inactive)

**Q.** And the GI50 (RXF 393)?
**A.** 20.2 µM (inactive)

**Q.** And the GI50 (SF-268)?
**A.** 40.7 µM (inactive)

**Q.** And the GI50 (SF-539)?
**A.** 31.2 µM (inactive)

**Q.** What about the GI50 (SK-MEL-2) of the same molecule?
**A.** 60.1 µM (inactive)

**Q.** And the GI50 (SR)?
**A.** 68.2 µM (inactive)

**Q.** What about the GI50 (UACC-257) of the same molecule?
**A.** 44.9 µM (inactive)

**Q.** And the GI50 (UACC-62)?
**A.** 46.1 µM (inactive)

**Q.** COc1ccc2ccccc2c1C1=NC(C)(C)CO1 was tested. Which GI50 (786-0) did it give?
**A.** > 100 µM (inactive)

**Q.** What about the GI50 (ACHN) of the same molecule?
**A.** > 100 µM (inactive)

**Q.** What about the GI50 (CCRF-CEM) of the same molecule?
**A.** > 100 µM (inactive)

**Q.** And the GI50 (COLO 205)?
**A.** > 100 µM (inactive)

**Q.** And the GI50 (HL-60)?
**A.** > 100 µM (inactive)

**Q.** What about the GI50 (Malme-3M) of the same molecule?
**A.** > 100 µM (inactive)

**Q.** And the GI50 (NCI-H226)?
**A.** > 100 µM (inactive)

**Q.** What about the GI50 (OVCAR-4) of the same molecule?
**A.** > 100 µM (inactive)

**Q.** What about the GI50 (OVCAR-8) of the same molecule?
**A.** > 100 µM (inactive)

**Q.** What about the GI50 (RXF 393) of the same molecule?
**A.** > 100 µM (inactive)

**Q.** And the GI50 (SF-268)?
**A.** > 100 µM (inactive)

**Q.** And the GI50 (SF-539)?
**A.** > 100 µM (inactive)

**Q.** What about the GI50 (SK-MEL-2) of the same molecule?
**A.** > 100 µM (inactive)

**Q.** What about the GI50 (SK-OV-3) of the same molecule?
**A.** > 100 µM (inactive)

**Q.** What about the GI50 (SR) of the same molecule?
**A.** > 100 µM (inactive)

**Q.** And the GI50 (UACC-257)?
**A.** > 100 µM (inactive)

**Q.** What about the GI50 (UACC-62) of the same molecule?
**A.** > 100 µM (inactive)

**Q.** Which results are given for [N-]=[N+]=Nc1c(Br)c(=O)[nH]c(=O)n1COCCO?
**A.** GI50 (786-0): > 100 µM (inactive); GI50 (ACHN): > 100 µM (inactive); GI50 (CCRF-CEM): 63.4 µM (inactive); GI50 (COLO 205): > 100 µM (inactive); GI50 (HL-60): > 100 µM (inactive); GI50 (LOX IMVI): > 100 µM (inactive); GI50 (Malme-3M): > 100 µM (inactive); GI50 (OVCAR-4): > 100 µM (inactive); GI50 (OVCAR-5): > 100 µM (inactive); GI50 (OVCAR-8): > 100 µM (inactive); GI50 (RXF 393): > 100 µM (inactive); GI50 (SF-268): > 100 µM (inactive); GI50 (SF-539): > 100 µM (inactive); GI50 (SR): > 100 µM (inactive); GI50 (UACC-257): > 100 µM (inactive); GI50 (UACC-62): > 100 µM (inactive)

**Q.** Which results are given for Nc1nc(=O)[nH]c2c1cnn2COCCO?
**A.** GI50 (ACHN): > 100 µM (inactive); GI50 (CCRF-CEM): > 100 µM (inactive); GI50 (COLO 205): > 100 µM (inactive); GI50 (HL-60): > 100 µM (inactive); GI50 (LOX IMVI): > 100 µM (inactive); GI50 (Malme-3M): > 100 µM (inactive); GI50 (NCI-H226): 0.281 µM (active); GI50 (OVCAR-4): > 100 µM (inactive); GI50 (OVCAR-5): 11.3 µM (inactive); GI50 (OVCAR-8): > 100 µM (inactive); GI50 (RXF 393): 22.3 µM (inactive); GI50 (SF-268): > 100 µM (inactive); GI50 (SF-539): > 100 µM (inactive); GI50 (SK-MEL-2): > 100 µM (inactive); GI50 (SR): > 100 µM (inactive); GI50 (UACC-257): > 100 µM (inactive)

**Q.** What does the source list for CC(C)C(NC(=O)OC(C)(C)C)C(=O)N(C)C(Cc1ccccc1)C(=O)N(C)C(C(=O)N(C)C(C(=O)O)C(C)C)C(C)C (stereo not given) (Boc-V[NMeF][NMeV][NMeV]-OH; configuration not given here)?
**A.** GI50 (786-0): > 100 µM (inactive); GI50 (ACHN): > 100 µM (inactive); GI50 (CCRF-CEM): > 100 µM (inactive); GI50 (COLO 205): > 100 µM (inactive); GI50 (HL-60): > 100 µM (inactive); GI50 (LOX IMVI): > 100 µM (inactive); GI50 (Malme-3M): > 100 µM (inactive); GI50 (NCI-H226): > 100 µM (inactive); GI50 (OVCAR-8): > 100 µM (inactive); GI50 (RXF 393): > 100 µM (inactive); GI50 (SF-268): > 100 µM (inactive); GI50 (SF-539): > 100 µM (inactive); GI50 (SR): > 100 µM (inactive); GI50 (UACC-257): > 100 µM (inactive); GI50 (UACC-62): > 100 µM (inactive)
